Assay results: patent US5663201A, “Desferrioxamine-B salts” (CIBA-GEIGY Corporation, priority 1992, dated 1997)
Structures can show the parent of a compound that is named as a salt. Where two headings read alike, the source gives them in different places. Blank lines part the entries; values can stand above or below the molecule they belong to.

Assays:
[1] = system: Daudi cell line (B-cell lymphoma); experiment: iron-chelation bioassay: growth inhibiting effect on cells through iron removal, [3H] Thymidine uptake; type: cell-based; details: 72 hours, Control (0 μM): Ex 18 22297, Ex 19 23897, listed as octanesulphonate
Method: The iron-chelating properties of salts of the invention in a biological system are determined by means of a bioassay in which the growth inhibiting effect of the salts on cells through iron removal is measured by the uptake of radioactively labelled thymidine into the cells. The bioassay is carried out using a Daudi cell line (B-cell lymphoma), a Roswell Park Memorial Institute (RPMI) 1640 medium containing 1 µM ferric citrate and supplements as low iron washing medium and RPM11640 together with 5% by weight of foetal calf serum as passaging medium.
The cells are fed 24 hours before use. They are washed twice in the low iron washing medium to remove any excess iron and diluted with this medium to a concentration of 0.2×10^6 cells/0.180 ml. To 0.180 ml aliquots are added 0.02 ml of solutions of the desferrioxamine-B salts under test in phosphate-buffered saline (PBS) to give concentrations ranging from a Control containing no salt to a […] solution. The cells are then incubated at 37° C. in an atmosphere containing 5% by volume of carbon dioxide for 72 hours, being pulsed for the last 8 hours of that time with labelled [^3 H] Thymidine at 5 micro Ci/ml. The resulting cells are harvested and their radioactive disintegrations are counted for 10 minutes. The results are shown in the table below as the average of 4 separate experiments (except the Control result in Example 18 which is the average of 3 separate experiments).

[2] = type: physicochemical; details: n-octanol/water, 5000 µM
Method: (§1) The partition coefficients of the salts prepared in Examples 1 to 5 between n-octanol and water are determined by the `shake-flask` method of Leo et at, Chem. Rev., 71(6), 525 (1971).
The n-octanol and aqueous phases are mutually saturated prior to conducting the experiment. The desferrioxamine-B sulphonic acid addition salt is dissolved in the aqueous phase at a concentration of 0.005 mol/l and the partition experiment is performed by shaking the vessel containing the two phases until an equilibrium has been achieved. […] After equilibrium has been achieved, the sample is centrifuged to enable phase separation. Both organic and aqueous phases are analysed for desferrioxamine-B content via extraction of an appropriate aliquot, quenching with an aqueous (for assay of the aqueous phase) or methanolic (for assay of the n-octanol phase) solution of FeCl3, and measurement of the absorption of the characteristic ferrioxamine-B chelate at ca. 450 nm. Respective calibration plots (absorbance vs. concentration of desferrioxamine-B sulphonic acid salt) for the assay of both aqueous and organic phases show a linear response over the concentration range studied. The results obtained are as follows: […]

[3] = intrinsic dissolution of tablets, Langenbucher flow-through apparatus; type: physicochemical; details: water, 25° C.
Method: Tablets are prepared from the salts of Examples 1 and 4 by compressing a mixture of 99 parts of the salt and 1 part of magnesium stearate in a 13mm die for 2 minutes under a pressure of 4×10^5 kPa. The intrinsic dissolution rates of the tablets are determined using a Langenbucher flow-through apparatus, with water at 25° C. as the dissolution medium. The amount of desferrioxamine-B dissolved in the medium is measured at intervals using a spectrophotometric assay at 215 nm.

[4] = type: physicochemical; details: n-octanol/phosphate buffer, pH 7.4
Method: as §1
The n-octanol and aqueous phases are mutually saturated prior to conducting the experiment. The desferrioxamine-B sulphonic acid addition salt is dissolved in the aqueous phase at a concentration of 0.005 mol/l and the partition experiment is performed by shaking the vessel containing the two phases until an equilibrium has been achieved. […] After equilibrium has been achieved, the sample is centrifuged to enable phase separation. Both organic and aqueous phases are analysed for desferrioxamine-B content via extraction of an appropriate aliquot, quenching with an aqueous (for assay of the aqueous phase) or methanolic (for assay of the n-octanol phase) solution of FeCl3, and measurement of the absorption of the characteristic ferrioxamine-B chelate at ca. 450 nm. Respective calibration plots (absorbance vs. concentration of desferrioxamine-B sulphonic acid salt) for the assay of both aqueous and organic phases show a linear response over the concentration range studied. The results obtained are as follows:
The partition coefficients of the salts prepared in Examples 1 to 5 between n-octanol and an aqueous phosphate buffer at pH7.4 having an ionic strength of 0.31 mol/l are determined using the procedure of Examples 6-10. The results obtained are as follows:
The use of n-octanol/aqueous media partition coefficients as a model for the lipophilicity of drugs is well established (see the abovementioned Leo et al reference). The aqueous phase in Examples 11 to 15 simulates physiological conditions.

[5] = in words, U.S. Pat. No. 3,247,197; cited from earlier work

Partition Coefficient [2]: 0.121
% Desferrioxaine-B salt dissolved ([3]; 1 min, listed as octanesulphonate): 1.71%
% Desferrioxaine-B salt dissolved ([3]; 2 min, listed as octanesulphonate): 3.07%
% Desferrioxaine-B salt dissolved ([3]; 5 min, listed as octanesulphonate): 6.88%
% Desferrioxaine-B salt dissolved ([3]; 10 min, listed as octanesulphonate): 10.56%
% Desferrioxaine-B salt dissolved ([3]; 15 min, listed as octanesulphonate): 14.22%
% Desferrioxaine-B salt dissolved ([3]; 20 min, listed as octanesulphonate): 17.94%
% Desferrioxaine-B salt dissolved ([3]; 30 min, listed as octanesulphonate): 24.73%
% Desferrioxaine-B salt dissolved ([3]; 50 min, listed as octanesulphonate): 37.09%
% Desferrioxaine-B salt dissolved ([3]; 75 min, listed as octanesulphonate): 48.75%
% Desferrioxaine-B salt dissolved ([3]; 100 min, listed as octanesulphonate): 58.34%
% Desferrioxaine-B salt dissolved ([3]; 125 min, listed as octanesulphonate): 66.38%
% Desferrioxaine-B salt dissolved ([3]; 150 min): 72.38%
% Desferrioxaine-B salt dissolved ([3]; 175 min, listed as octanesulphonate): 79.13%
% Desferrioxaine-B salt dissolved ([3]; 200 min, listed as octanesulphonate): 84.91%
% Desferrioxaine-B salt dissolved ([3]; 225 min, listed as octanesulphonate): 89.25%
% Desferrioxaine-B salt dissolved ([3]; 250 min, listed as octanesulphonate): 92.50%
% Desferrioxaine-B salt dissolved ([3]; 275 min, listed as octanesulphonate): 94.91%
% Desferrioxaine-B salt dissolved ([3]; 300 min, listed as octanesulphonate): 96.34%
intrinsic rate of release into the aqueous dissolution medium ([3]; in words): slow
Partition Coefficient [4]: 0.047
Structure (SMILES): CC(=O)N(O)CCCCCNC(=O)CCC(=O)N(O)CCCCCNC(=O)CCC(=O)N(O)CCCCCN [Example 4, octane-1-sulphonate salt of desferrioxamine-B]
Disintegrations Per Minute ([3H] Thymidine uptake) ([1]; 0.5 μM salt): 21830 Disintegrations Per Minute
Disintegrations Per Minute ([3H] Thymidine uptake) ([1]; 1 μM salt): 14765 Disintegrations Per Minute
Disintegrations Per Minute ([3H] Thymidine uptake) ([1]; 2 μM salt): 7651 Disintegrations Per Minute
Disintegrations Per Minute ([3H] Thymidine uptake) ([1]; 3 μM salt): 7109 Disintegrations Per Minute
Disintegrations Per Minute ([3H] Thymidine uptake) ([1]; 4 μM salt): 6280 Disintegrations Per Minute
Disintegrations Per Minute ([3H] Thymidine uptake) ([1]; 5 μM salt): 5373 Disintegrations Per Minute
Disintegrations Per Minute ([3H] Thymidine uptake) ([1]; 6 μM salt): 4122 Disintegrations Per Minute
Disintegrations Per Minute ([3H] Thymidine uptake) ([1]; 7.5 μM salt): 3716 Disintegrations Per Minute
Disintegrations Per Minute ([3H] Thymidine uptake) ([1]; 10 μM salt): 2292 Disintegrations Per Minute
Disintegrations Per Minute ([3H] Thymidine uptake) ([1]; 15 μM salt): 1065 Disintegrations Per Minute
Disintegrations Per Minute ([3H] Thymidine uptake) ([1]; 20 μM salt): 482 Disintegrations Per Minute

Structure (SMILES): CC(=O)N(O)CCCCCNC(=O)CCC(=O)N(O)CCCCCNC(=O)CCC(=O)N(O)CCCCCN [desferrioxamine-B]
ability to form stable complexes with trivalent metal ions [5]: marked ability to form stable complexes with trivalent metal ions, especially Fe^3+
